Experimental data: patent publication US11242337B2, “Compounds useful for treating gastrointestinal tract disorders” (Ardelyx, Inc., priority 2017, dated 2022)
Like-named read-outs stand apart in the source and are kept apart here.

Tests used:
[1] = system: human duodenum monolayer culture; experiment: Increased trans-epithelial resistance (TEER) in human organoid monolayer cell cultures; assay type: cell-based; settings: 1 μM apical, baseline corrected
Protocol: Basal media (B consisted of advanced DMEM/F12 containing 10 mM HEPES (Invitrogen, 15630-080), 1:100 Glutamax (Invitrogen, 35050-061), and 1:100 penicillin/streptomycin (Invitrogen, 15140-122). Supplemented basal media (SBM) contained 1:100 N2 (Invitrogen, 17502-048), 1:50 B27 (Invitrogen, 12587-010), 1 mM N-acetylcysteine (Sigma, A9165), and 10 nM [Leu15]-gastrin I (Sigma, G9145). Growth factors used included 50 ng per mL mouse EGF (Peprotech, 315-09), 100 ng per mL mouse noggin (Peprotech, 250-38), 500 ng per mL human R-spondin 1 (R&D, 4645-RS), 100 ng per mL mouse Wnt-3a (R&D, 1324-WN), 20 μM Y-27632 (Tocris, 1254), 10 mM nicotinamide (Sigma, N0636), 500 nM A83-01 (Tocris, 2939), 10 μM SB202190 (Tocris, 1264). Transwells were 0.4 μm pore polyester membrane 24-well Transwell inserts (Corning). Cultures were incubated at 37° C. in 5% CO2.
Human duodenum organoids were cultured in WENRNAS (Wnt, EGF, noggin, R-spondin1, Nicotinamide, A83-01, SB202190) and typically grown for 7-12 days before being used to plate monolayer cultures. On day 0, organoid cultures embedded in Matrigel were treated with TrypLE Express to break organoids into small pieces and/or single cells. The cells were resuspended to 0.5×10^6 cells/mL in SBM containing WENRAY (Wnt, EGF, noggin, R-spondin1, A83-01, Y-27632). Following this step, 200 μL of cell suspension was plated into the apical side of a 24-well Transwell (100,000 cells/well) and 600 μL of SBM with WENRAY was added to the basolateral side. Duodenum cells were differentiated with ENA (EGF, noggin, A83-01) on day 3. The color of apical compartment turns from pink or orange to yellow due to the increase in NHE3 expression after differentiation.
Each human duodenum monolayer culture well was washed twice with fresh SBM on the apical side on day 6 or day 7 before dosing. All compound stocks were 10 mM dissolved DMSO. Each compound stock was individually mixed with fresh SBM to reach final compound concentration 1 μM and dosed only on the apical side of the monolayer (total volume 200 μl). DMSO at the equivalent concentration was used as the vehicle control. Duplicate wells were dosed for each compound. Transepithelial electrical resistance (TEER) was used as a quantitative technique to measure of tight junction permeability. TEER values were recorded (MERS00002, Millipore) before dosing and 30 mins and 1 hr after dosing for all wells. Each of the duplicate TEER values following treatment were corrected for the individual well baseline TEER. Baseline corrected TEER for each example compound was compared to the average of the DMSO wells and expressed as a percent TEER of vehicle control.

[2] = system: absorption of sodium from the intestinal lumen; experiment: Inhibition of intestinal sodium absorption in mice; assay type: in vivo; settings: CD-1 mice, 15 mg/kg oral gavage twice daily; for Fecal fluid content (Δ from vehicle): day 3, change from vehicle group mean; for response vs control in vivo at 15 mg/kg: Mus musculus, 72 h, day 3, normalized to dietary sodium intake
Procedure, shortened: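 Male ~8-week CD-1 mice on chow with added 0.4% inorganic phosphorous, in metabolic cages after 3-day acclimation and 24-hr baseline collection. Urine sodium by ion chromatography, dried fecal sodium by MP-AES; day-3 24-hour excretion normalized to dietary sodium intake and expressed as % of vehicle mean; diarrhea and fecal fluid also recorded.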

[3] = 1 hr after dosing, read-out: TEER at 60 minutes (% of Vehicle)
[4] = 0.5 h, 30 mins after dosing, read-out: TEER at 30 minutes (% of Vehicle)
[5] = read-out: Fecal Na Excretion (% of vehicle)
[6] = read-out: Urinary Na Excretion (% of vehicle)

Row | Structure (SMILES) | activity at 1 µM [1, 3] [%] | activity at 1 µM [1, 4] [%] | Fecal fluid content (Δ from vehicle) [2] | response vs control in vivo at 15 mg/kg [2, 5] [%] | response vs control in vivo at 15 mg/kg [2, 6] [%]
1 | O=C(NCCCCNC(=O)NCCOCCOCCNS(=O)(=O)c1ccc(O[C@H]2c3cc(Cl)cc(Cl)c3C[C@@H]2N2CCNCC2)cc1)NCCOCCOCCNS(=O)(=O)c1ccc(O[C@H]2c3cc(Cl)cc(Cl)c3C[C@@H]2N2CCNCC2)cc1 [Example 31, 3-[2-(2-[2-[(4-[[(1S,2S)-4,6-Dichloro-2-(piperazin-1-yl)-2,3-dihydro-1H-inden-1-yl]oxy]benzene)sulfonamido]ethoxy]ethoxy)ethyl]-1-[4-([[2-(2-[2-[(4-[[(1S,2S)-4,6-dichloro-2-(piperazin-1-yl)-2,3-dihydro-1H-inden-1-yl]oxy]benzene)sulfonamido]ethoxy]ethoxy)ethyl]carbamoyl]amino)butyl]urea; bis(trifluoroacetic acid)] | > 130 | 100 to 130 | B (5-10) | > 200 | 50 to 70
2 | Cc1cc(S(=O)(=O)NCCOCCOCCNC(=O)NCCCCNC(=O)NCCOCCOCCNS(=O)(=O)c2ccc(O[C@H]3c4cc(Cl)cc(Cl)c4C[C@@H]3N3CCNCC3)c(C)c2)ccc1O[C@H]1c2cc(Cl)cc(Cl)c2C[C@@H]1N1CCNCC1 [Example 32, 3-[2-(2-[2-[(4-[[(1S,2S)-4,6-Dichloro-2-(piperazin-1-yl)-2,3-dihydro-1H-inden-1-yl]oxy]-3-methylbenzene)sulfonamido]ethoxy]ethoxy)ethyl]-1-[4-([[2-(2-[2-[(4-[[(1S,2S)-4,6-dichloro-2-(piperazin-1-yl)-2,3-dihydro-1H-inden-1-yl]oxy]-3-methylbenzene)sulfonamido]ethoxy]ethoxy)ethyl]carbamoyl]amino)butyl]urea; bis(trifluoroacetic acid)] | > 130 | 100 to 130 | A (<5) | 150 to 200 | 50 to 70
3 | O=C(NCCCCNC(=O)NCCOCCOCCNS(=O)(=O)c1ccc(O[C@H]2c3cc(Cl)cc(Cl)c3C[C@@H]2N2CCNCC2)c(F)c1)NCCOCCOCCNS(=O)(=O)c1ccc(O[C@H]2c3cc(Cl)cc(Cl)c3C[C@@H]2N2CCNCC2)c(F)c1 [Example 33, 3-[2-(2-[2-[(4-[[(1S,2S)-4,6-Dichloro-2-(piperazin-1-yl)-2,3-dihydro-1H-inden-1-yl]oxy]-3-fluorobenzene)sulfonamido]ethoxy]ethoxy)ethyl]-1-[4-[[(2-(2-[2-[(4-[[(1S,2S)-4,6-dichloro-2-(piperazin-1-yl)-2,3-dihydro-1H-inden-1-y]oxy]-3-fluorobenzene)sulfonamido]ethoxy]ethoxy)ethyl]carbamoyl]amino)butyl]urea; bis(trifluoroacetic acid)] | > 130 | 100 to 130 | C (>10) | > 200 | < 50
4 | N#Cc1cc(Cl)cc2c1C[C@H](N1CCNCC1)[C@H]2Oc1ccc(S(=O)(=O)NCCOCCOCCNC(=O)NCCCCNC(=O)NCCOCCOCCNS(=O)(=O)c2ccc(O[C@H]3c4cc(Cl)cc(C#N)c4C[C@@H]3N3CCNCC3)cc2)cc1 [Example 41, 3-[2-(2-[2-[(4-[[(1S,2S)-6-Chloro-4-cyano-2-(piperazin-1-yl)-2,3-dihydro-1H-inden-1-yl]oxy]benzene)sulfonamido]ethoxy]ethoxy)ethyl]-1-[4-([[2-(2-[2-[(4-[[(1S,2S)-6-chloro-4-cyano-2-(piperazin-1-yl)-2,3-dihydro-1H-inden-1-yl]oxy]benzene)sulfonamido]ethoxy]ethoxy)ethyl]carbamoyl]amino)butyl]urea; bis(trifluoroacetic acid)] | 100 to 130 | 100 to 130 | B (5-10) | > 200 | < 50
